In patent US7589057B2, “Oil-in-water method for making alpha-2 agonist polymeric drug delivery systems” (Allergan, Inc., priority 2004, dated 2009):
Values after ≈ are worked out from the molar mass of the structure shown.

How the values were obtained:
[1] = Solubility of bimatoprost in water; assay type: physicochemical; conditions: room temperature
Source text: (§1) FIGS. 2A, 2B, 2C, 2D, 2E, and 2F illustrate the chemical structure of bimatoprost (AGN 192024, FIG. 2A), 15β bimatoprost (FIG. 2B); 5,6-trans bimatoprost isomer (FIG. 2C); C1 acid of bimatoprost (FIG. 2D); triphenyphosphine oxide (TPPO; FIG. 2E); and 15-Keto bimatoprost (FIG. 2F). Bimatoprost is the active ingredient and the other chemicals are impurities that may be present. […] Bimatoprost is a non-ionizable compound.

[2] = assay type: physicochemical
Source text: as §1

[3] = Ionisability of bimatoprost; assay type: physicochemical
Source text: as §1

[4] = Effects of gamma sterilization on the stability of bimatoprost; assay type: physicochemical
Description: The formula abbreviations correspond to compounds illustrated in FIGS. 2A-2F. High performance liquid chromatography was used to quantify bimatoprost and impurities present in the microparticles. Analytes were eluted from a Waters Symmetry® C18 reverse-phase column using a mobile phase composed of 72/18/10 (water/acetonitrile/methanol v/v/v) containing 0.03% (w/v) trifluoroacetic acid. UV detection was performed at 210 nm.

solubility [1]: 3200 µg/mL (≈ 7.7 mM)
partition coefficient Log P [2]: 2.4 plus or minus 0.1
ionisability [3]: non-ionizable
% wt/wt 5,6-trans ([4]; gamma sterilized): 0.1 % wt/wt
% wt/wt 15β ([4]; gamma sterilized): 0.1 % wt/wt
% wt/wt bimatoprost ([4]; gamma sterilized): 85.3 % wt/wt
% wt/wt, 15-keto ([4]; gamma sterilized): 2.3 % wt/wt
decrease of the amount of active bimatoprost by gamma sterilization ([4]; gamma sterilized vs none sterilized): about 10%
% wt/wt 5,6-trans ([4]; none sterilized): 0.1 % wt/wt
% wt/wt 15β ([4]; none sterilized): 0.2 % wt/wt
% wt/wt bimatoprost ([4]; none sterilized): 95.3 % wt/wt
% wt/wt, 15-keto ([4]; none sterilized): 1.0 % wt/wt
Structure (SMILES): CCNC(=O)CCC/C=C\C[C@@H]1[C@@H](/C=C/[C@@H](O)CCc2ccccc2)[C@H](O)C[C@@H]1O [Bimatoprost]
